The source of these data is patent US8383608B2, “Imidazolidine compounds as androgen receptor modulators” (Dart Therapeutics LLC, priority 2008, dated 2013).

Read-outs that look alike come from different tables or passages of the source.

The test system of the assay is castrated immature young rats. The assay is described as follows: Adapted model of Hershberger's test. It counts as in vivo, Sprague Dawley rats. The conditions noted are these: Rattus norvegicus, po, 96 h, ORX control = 0%, SHAM control = 100%, per os daily for 4 days, dose tested 10 mg/kg. How it is done: The selective modulating activity of the androgen receptor is tested in a model of castrated immature young rats. This model, which is widely recognised for evaluating the anabolic effects of androgen compounds on the muscles and on the prostate, has been described by Hershberger et al. 1953 Proc. Soc. Expt. Biol. Med. 83:175.
The method is based on the measurement of the well-known effects of androgens on the growth of the muscles and the accessory male sex organs in animals, and also in men. The consequences of castration appear in the form of a rapid involution and atrophy of the prostate and the seminal vesicles and of the anus-lifting muscle (levator ani). This effect may be completely compensated by an exogeneous administration of androgen, in particular of testosterone. The model is thus used to determine the capacity of the tested molecules to maintain the weight of the accessory sex and muscle organs in immature castrated rats, and therefore their androgenic efficacy.
Immature young Sprague Dawley rats (4 to 5 weeks old) weighing approximately 140-160 g (Charles River, Les Oncins, FRANCE) are distributed randomly in various groups and are kept in an environment at 22±2° C. with an alternating day/night cycle of 12 hours and ad libitum access to food and drink.
On day 0 (seven days before commencement of the first treatment) the rats are weighed individually then anaesthetised with an intraperitoneal dose of Ketamine/xylazine (85/15 mg/kg, approximately 2 ml/kg). Each animal is then placed on a sterile field and the abdomen and the scrotum are disinfected with Betadine and 70% alcohol. In the case of the orchidectomised control animals (ORX), the testicles are removed via an incision in the middle of the scrotum. A sterile suture is then made to ligature the supra-testicular portion of the tissue prior to surgical section of each testicle. The groups of animals to be treated by the tested compounds are operated on in an identical manner. In the case of the intact control animals (SHAM), the testicles are similarly extracted and reintroduced delicately to their original location. The site of surgical intervention is then sutured using sterile suture thread, and the site is disinfected again by application of Betadine. Each animal is then kept under a sterile pad until it awoke, before being returned to its cage. The animals are kept in an environment at 22±2° C. with an alternating day/night cycle of 12 hours and ad libitum access to food and drink. The animals are treated with the molecules to be tested from post-surgery day 7 and until day 10 preceding sacrifice (day 11).
The rats are split into groups and treated daily from day 7 to day 10 under the conditions defined below: • 1. SHAM control group: Vehicle (PEG400/DMSO/water; 79/1/20) administered per os. • 2. ORX control group: Vehicle (PEG400/DMSO/water; 79/1/20) administered per os. • 3. Treated ORX group: The tested compounds are administered individually per os in suspension in the vehicle described above, in a dose of 10 mg/kg.
After treatment for 4 successive days, the animals are decapitated using a guillotine. The levator ani and the ventral prostate are removed and weighed individually. For comparing inter-experimental data, the weight of each organ is standardised and expressed in milligrammes per 100 g of the weight of the animal (W). For each organ, the average of the standardised weights of the ORX control group is fixed by definition at 0% and the average of the standardised weights of the SHAM control group is fixed by definition at 100%. The efficacy of each product is expressed as a percentage and calculated using the following formula: (Wtreated−WORX)/(WSHAM−WORX)×100
A subsequent ANOVA test is used for statistical analysis to identify the differences between groups.

The mark [1] stands for this setting: levator ani weight, read-out: Anabolic activity %.
The mark [2] stands for this setting: ventral prostate weight, read-out: Androgenic activity % (Prostate).

Regarding `CN1C(=O)N(c2ccc(C#N)c(C(F)(F)F)c2)C(=O)[C@@]1(CO)c1ccccc1` [Example 10, (S)-4-[2,5-Dioxo-4-(hydroxymethyl)-3-methyl-4-phenylimidazolidin-1-yl]-2-trifluoromethylbenzonitrile], the response vs control in vivo at 10 mg/kg under setting [1] fell in the range of 75 to 100% and the response vs control in vivo at 10 mg/kg under setting [2] was in the range of 0.5 to 25%.
Taken in the same sequence, the figures for `CN1C(=O)N(c2ccc(C#N)c(C(F)(F)F)c2)C(=O)C1(CO)c1ccc(Cl)cc1` (stereo not drawn) [Example 7, 4-[4-(4-Chlorophenyl)-2,5-dioxo-4-hydroxymethyl-3-methyl-imidazolidin-1-yl)-2-trifluoromethylbenzonitrile] were 25 to 50% and 0%.
For `CCN1C(=O)N(c2ccc(C#N)c(C(F)(F)F)c2)C(=O)C1(CO)c1ccccc1` (stereo not drawn) [Example 12, 4-[2,5-Dioxo-3-ethyl-4-(hydroxymethyl)-4-phenylimidazolidin-1-yl]-2-trifluoromethylbenzonitrile], the response vs control in vivo at 10 mg/kg under setting [1] is 75 to 100% and the response vs control in vivo at 10 mg/kg under setting [2] is 50 to 75%.
